From patent US9586961B2, “Homopiperazine derivatives as protein tyrosine kinase inhibitors and pharmaceutical use thereof” (LEO PHARMA A/S, priority 2010, dated 2017)

Legend:
Format in all cases: biochemical
JAK1 = target: T1, JAK1 (Homo sapiens, UniProt P23458); assay: JAK1 kinase assay (HTRF, inhibition of phosphorylation of a synthetic peptide); conditions: catalytic domain aa 850-1154, GST-tag; 7 μM ATP (Km); read-out: JAK1 kinase inhibitory activity (EC50)
T1 construct: JAK1 (aa 850-1154) and TYK2 (aa 871-1187) are expressed with an N-terminally fused GST-tag; GST (N); purchased Carna Biosciences, Inc; host or cells: baculovirus expression system
Method in brief: (§1)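 Baculovirus-expressed human catalytic domains (GST-JAK1, GST-TYK2, His-JAK2, His-JAK3) phosphorylated 1 μM TK substrate-biotin at ATP Km (JAK1 7 μM, JAK2 4 μM, JAK3 2 μM, TYK2 13 μM) in pH 7.0 Hepes for 20-30 min at RT, 0.75% DMSO. EDTA stop, then overnight streptavidin-XL665/cryptate-antibody detection and HTRF read.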

JAK3 = target: T2, JAK3 (Homo sapiens, UniProt P52333); assay: JAK3 kinase assay (HTRF, inhibition of phosphorylation of a synthetic peptide); conditions: catalytic domain, His-tag; 2 μM ATP (Km); read-out: JAK3 kinase inhibitory activity (EC50)
T2 construct: All four purified enzymes contain only the catalytic domain; His (N); purchased Carna Biosciences, Inc; host or cells: baculovirus expression system
Method in brief: as §1

JAK2 = target: T3, JAK2 (Homo sapiens, UniProt O60674); assay: JAK2 kinase assay (HTRF, inhibition of phosphorylation of a synthetic peptide); conditions: catalytic domain, His-tag; 4 μM ATP (Km); read-out: JAK2 kinase inhibitory activity (EC50)
T3 construct: All four purified enzymes contain only the catalytic domain; His (N); purchased Carna Biosciences, Inc; host or cells: baculovirus expression system
Method in brief: as §1

TYK2 = target: T4, TYK2 (Homo sapiens, UniProt P29597); assay: TYK2 kinase assay (HTRF, inhibition of phosphorylation of a synthetic peptide); conditions: catalytic domain aa 871-1187, GST-tag; 13 μM ATP (Km); read-out: TYK2 kinase inhibitory activity (EC50)
T4 construct: JAK1 (aa 850-1154) and TYK2 (aa 871-1187) are expressed with an N-terminally fused GST-tag; GST (N); purchased Carna Biosciences, Inc; host or cells: baculovirus expression system
T4 sequence (P29597 871-1187): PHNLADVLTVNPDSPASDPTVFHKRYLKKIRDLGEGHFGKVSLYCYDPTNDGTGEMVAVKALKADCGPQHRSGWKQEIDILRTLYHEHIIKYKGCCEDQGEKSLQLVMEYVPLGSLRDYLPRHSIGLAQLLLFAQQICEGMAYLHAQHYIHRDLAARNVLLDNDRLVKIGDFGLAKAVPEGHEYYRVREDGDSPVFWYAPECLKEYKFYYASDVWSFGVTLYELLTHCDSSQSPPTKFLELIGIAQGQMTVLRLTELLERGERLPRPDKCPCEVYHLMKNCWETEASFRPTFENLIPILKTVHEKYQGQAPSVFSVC
Protocol: JAK1, JAK2, JAK3 and TYK2 Kinase Assays:
Human baculovirus-expressed JAK1, 2, 3 and TYK2 were purchased from Carna Biosciences, Inc. All four purified enzymes contain only the catalytic domain. JAK1 (aa 850-1154) and TYK2 (aa 871-1187) are expressed with an N-terminally fused GST-tag, and JAK2 and JAK3 with an N-terminally fused His-tag. Inhibition of phosphorylation of a synthetic peptide was measured in an HTRF-based assay using the TK substrate-Biotin from the CisbioHTRFKinEASE TK kit. First, 2 μl of TK solution (TK substrate-biotin in kinase buffer [1× enzymatic buffer from HTRFKinEASE TK kit, 1 mM DTT]) is added to a plate containing 1 μl prediluted compound (final assay concentration DMSO: 0.75%). Then, 5 μl kinase-ATP mix (prepared in kinase buffer) is added to the wells and the plates are incubated at RT for 20-30 min. For all four kinases a concentration of ATP that corresponded to the Km for ATP was used. The final concentrations of buffers, substrate, kinase and ATP were: JAK1: 50 mMHepes buffer pH 7.0, 0.01% BSA, 10 mM MgCl2, 1 mM DTT, 7 μM ATP, 50 nMSEB, 1 μM TK Substrate-Biotin and 5 ng JAK1; JAK2: 50 mM Hepes buffer pH 7.0, 0.01% BSA, 5 mM MgCl2, 1 mM DTT, 4 μM ATP, 1 μM TK Substrate-Biotin and 0.1 ng JAK2; JAK3: 50 mMHepes buffer pH 7.0, 0.01% BSA, 5 mM MgCl2, 1 mM DTT, 2 μM ATP, 1 μM TK Substrate-Biotin and 0.3 ng JAK3; TYK2: 50 mMHepes buffer pH 7.0, 0.01% BSA, 5 mM MgCl2, 1 mM DTT, 13 μM ATP, 50 nMSEB, 1 μM TK Substrate-Biotin and 0.8 ng TYK2. Thereafter, the kinase reaction is stopped by adding 4 μl detection mix (final concentrations: 50 mM Hepes buffer pH 7.0, 0.01% BSA, 0.8 M KF, 20 mM EDTA, 42 nM Streptavidin-XL665 and 1:400 STKAbCryptate) and the plates are incubated overnight in the dark. The HTRF signal is read using an Envision plate reader.

T3 sequence (O60674 849-1124 limits assumed): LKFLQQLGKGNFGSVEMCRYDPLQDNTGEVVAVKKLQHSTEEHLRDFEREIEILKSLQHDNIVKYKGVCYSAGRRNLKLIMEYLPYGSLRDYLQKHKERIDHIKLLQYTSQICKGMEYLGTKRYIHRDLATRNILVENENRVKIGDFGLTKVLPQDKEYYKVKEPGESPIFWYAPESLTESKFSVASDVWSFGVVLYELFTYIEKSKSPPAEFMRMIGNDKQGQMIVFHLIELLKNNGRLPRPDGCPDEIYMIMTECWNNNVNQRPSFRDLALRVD
T1 sequence (P23458 850-1154): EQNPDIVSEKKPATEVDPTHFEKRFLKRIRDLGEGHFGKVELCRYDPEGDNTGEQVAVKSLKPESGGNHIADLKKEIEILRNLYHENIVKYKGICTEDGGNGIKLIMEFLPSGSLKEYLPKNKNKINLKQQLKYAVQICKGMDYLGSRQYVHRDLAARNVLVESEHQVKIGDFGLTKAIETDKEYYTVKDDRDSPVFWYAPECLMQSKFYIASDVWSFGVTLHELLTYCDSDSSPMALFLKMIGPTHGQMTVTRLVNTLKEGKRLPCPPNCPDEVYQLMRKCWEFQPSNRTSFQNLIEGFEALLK
T2 sequence (P52333 822-1111 limits assumed): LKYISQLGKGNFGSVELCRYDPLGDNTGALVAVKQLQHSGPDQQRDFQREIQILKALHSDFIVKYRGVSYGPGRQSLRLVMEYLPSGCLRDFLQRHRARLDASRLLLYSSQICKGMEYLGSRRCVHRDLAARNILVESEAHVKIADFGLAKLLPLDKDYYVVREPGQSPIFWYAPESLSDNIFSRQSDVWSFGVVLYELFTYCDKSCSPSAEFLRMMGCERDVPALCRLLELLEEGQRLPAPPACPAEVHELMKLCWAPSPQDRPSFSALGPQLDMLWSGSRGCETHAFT

EC50 (JAK1) | EC50 (JAK3) | EC50 (JAK2) | EC50 (TYK2) | SMILES
< 0.1 µM | 0.1 to 1 µM | 0.1 to 1 µM | > 1 µM | O=C(Nc1ccccc1)N1CCCN(c2ncnc3[nH]ccc23)CC12CC2 [Example 90, N-phenyl-5-(7H-pyrrolo[2,3-d]pyrimidin-4-yl)-5,9-diazaspiro[2.6]nonane-9-carboxamide]
< 0.1 µM | 0.1 to 1 µM | < 0.1 µM | 0.1 to 1 µM | O=C(Cc1cccs1)N1CCN(c2ncnc3[nH]ccc23)CC2(CC2)C1 [Example 30, 1-[5-(7H-pyrrolo[2,3-d]pyrimidin-4-yl)-5,8-diazaspiro[2.6]nonan-8-yl]-2-(2-thienyl)ethanone]
< 0.1 µM | 0.1 to 1 µM | < 0.1 µM | 0.1 to 1 µM | O=C(Cc1ccc(I)cc1)N1CCN(c2ncnc3[nH]ccc23)CC2(CC2)C1 [Example 66, 2-(4-iodophenyl)-1-[5-(7H-pyrrolo[2,3-d]pyrimidin-4-yl)-5,8-diazaspiro[2.6]nonan-8-yl]ethanone]
0.1 to 1 µM | 0.1 to 1 µM | < 0.1 µM | > 1 µM | N#Cc1cccc(CC(=O)N2CCN(c3ncnc4[nH]ccc34)CC3(CC3)C2)c1 [Example 9, 3-{2-oxo-2-[8-(7H-pyrrolo[2,3-d]pyrimidin-4-yl)-5,8-diazaspiro[2.6]non-5-yl]ethyl}benzonitrile]
< 0.1 µM | < 0.1 µM | < 0.1 µM | < 0.1 µM | NS(=O)(=O)c1ccc(OCC(=O)N2CCN(c3ncnc4[nH]ccc34)CC3(CC3)C2)cc1 [Example 63, 4-[2-oxo-2-[5-(7H-pyrrolo[2,3-d]pyrimidin-4-yl)-5,8-diazaspiro[2.6]nonan-8-yl]ethoxy]benzenesulfonamide]
< 0.1 µM | 0.1 to 1 µM | < 0.1 µM | > 1 µM | N#Cc1ccc(C(=O)N2CCCN(c3ncnc4[nH]ccc34)CC23CC3)cc1 [Example 56, 4-[5-(7H-pyrrolo[2,3-d]pyrimidin-4-yl)-5,9-diazaspiro[2.6]nonane-9-carbonyl]benzonitrile]
> 1 µM | 0.1 to 1 µM | 0.1 to 1 µM | > 1 µM | CC(C)(C#N)C(=O)N1CCN(c2ncnc3[nH]ccc23)CC2(CC2)C1 [Example 11, 2,2-Dimethyl-3-oxo-3-[8-(7H-pyrrolo[2,3-d]pyrimidin-4-yl)-5,8-diazaspiro[2.6]non-5-yl]propionitrile]
< 0.1 µM | 0.1 to 1 µM | 0.1 to 1 µM | > 1 µM | N#Cc1ccc2[nH]c(C(=O)N3CCN(c4ncnc5[nH]ccc45)CC4(CC4)C3)cc2c1 [Example 8, 2-[8-(7H-pyrrolo[2,3-d]pyrimidin-4-yl)-5,8-diazaspiro[2.6]nonane-5-carbonyl]-1H-indole-5-carbonitrile]
< 0.1 µM | 0.1 to 1 µM | < 0.1 µM | 0.1 to 1 µM | Cc1c[nH]c(C(=O)N2CCCN(c3ncnc4[nH]ccc34)CC23CC3)c1 [Example 277, (4-methyl-1H-pyrrol-2-yl)-[5-(7H-pyrrolo[2,3-d]pyrimidin-4-yl)-5,9-diazaspiro[2.6]nonan-9-yl]methanone]
0.1 to 1 µM | > 1 µM | 0.1 to 1 µM | > 1 µM | N#CC1(C(=O)N2CCN(c3ncnc4[nH]ccc34)CCC23CC3)CC1 [Example 44, 1-[6-(7H-pyrrolo[2,3-d]pyrimidin-4-yl)-6,9-diazaspiro[2.6]nonane-9-carbonyl]cyclopropanecarbonitrile]
< 0.1 µM | 0.1 to 1 µM | < 0.1 µM | 0.1 to 1 µM | NS(=O)(=O)c1ccc2[nH]c(C(=O)N3CCN(c4ncnc5[nH]ccc45)CC4(CC4)C3)cc2c1 [Example 101, 2-[5-(7H-pyrrolo[2,3-d]pyrimidin-4-yl)-5,8-diazaspiro[2.6]nonane-8-carbonyl]-1H-indole-5-sulfonamide]
> 1 µM | > 1 µM | > 1 µM | > 1 µM | CCCCC(=O)Nc1nc(N2CCCNC3(CC3)C2)c2cc[nH]c2n1 [Example 295]
0.1 to 1 µM | 0.1 to 1 µM | 0.1 to 1 µM | > 1 µM | CCCc1csc(C(=O)N2CCN(c3ncnc4[nH]ccc34)CC3(CC3)C2)c1 [Example 78, (4-propyl-2-thienyl)-[5-(7H-pyrrolo[2,3-d]pyrimidin-4-yl)-5,8-diazaspiro[2.6]nonan-8-yl]methanone]
< 0.1 µM | 0.1 to 1 µM | < 0.1 µM | 0.1 to 1 µM | O=C(Cc1ccc(Cl)cc1)N1CCN(c2ncnc3[nH]ccc23)CC2(CC2)C1 [Example 125, 2-(4-chlorophenyl)-1-[5-(7H-pyrrolo[2,3-d]pyrimidin-4-yl)-5,8-diazaspiro[2.6]nonan-8-yl]ethanone]
> 1 µM | > 1 µM | 0.1 to 1 µM | > 1 µM | CCN(CC)S(=O)(=O)N1CCN(c2ncnc3[nH]ccc23)CC2(CC2)C1 [Example 104, N,N-diethyl-5-(7H-pyrrolo[2,3-d]pyrimidin-4-yl)-5,8-diazaspiro[2.6]nonane-8-sulfonamide]
0.1 to 1 µM | 0.1 to 1 µM | 0.1 to 1 µM | > 1 µM | N#CCCNS(=O)(=O)c1ccc(C(=O)N2CCN(c3ncnc4[nH]ccc34)CC3(CC3)C2)cc1 [Example 69, N-(2-cyanoethyl)-4-[5-(7H-pyrrolo[2,3-d]pyrimidin-4-yl)-5,8-diazaspiro[2.6]nonane-8-carbonyl]benzenesulfonamide]
> 1 µM | > 1 µM | 0.1 to 1 µM | > 1 µM | N#Cc1ccccc1C(=O)N1CCN(c2ncnc3[nH]ccc23)CC2(CC2)C1 [Example 7, 2-[8-(7H-pyrrolo[2,3-d]pyrimidin-4-yl)-5,8-diazaspiro[2.6]nonane-5-carbonyl]benzonitrile]
> 1 µM | > 1 µM | > 1 µM | > 1 µM | CCCCC(=O)Nc1nc(N2CCCN(Cc3ccccc3)C3(CC3)C2)c2cc[nH]c2n1 [Example 283, N-[4-(9-benzyl-5,9-diazaspiro[2.6]nonan-5-yl)-7H-pyrrolo[2,3-d]pyrimidin-2-yl]pentanamide]
> 1 µM | > 1 µM | > 1 µM | > 1 µM | COc1ncccc1C(=O)N1CCN(c2ncnc3[nH]ccc23)CC2(CC2)C1 [Example 4, (2-Methoxypyridin-3-yl)-[8-(7H-pyrrolo[2,3-d]pyrimidin-4-yl)-5,8-diazaspiro[2.6]non-5-yl]methanone]
< 0.1 µM | 0.1 to 1 µM | < 0.1 µM | 0.1 to 1 µM | O=C(c1cnsn1)N1CCCN(c2ncnc3[nH]ccc23)CC12CC2 [Example 203, [5-(7H-pyrrolo[2,3-d]pyrimidin-4-yl)-5,9-diazaspiro[2.6]nonan-9-yl]-(1,2,5-thiadiazol-3-yl)methanone]
> 1 µM | > 1 µM | > 1 µM | > 1 µM | CC1CN(c2ncnc3[nH]ccc23)CC2(CC2)CN1C(=O)c1ccccc1 (stereo not drawn) [Example 284, [7-methyl-5-(7H-pyrrolo[2,3-d]pyrimidin-4-yl)-5,8-diazaspiro[2.6]nonan-8-yl]-phenyl-methanone]
